Legend:
Ku70–Ku80 = Ku70–Ku80 (Homo sapiens, UniProt P12956+P13010); test: nano Differential Scanning Fluorometry; type: binding; conditions: 0 to 25 μM ligand
DNA-PK = DNA-PK (Homo sapiens, UniProt P12956+P13010); test: DNA-PK phosphoryl-transferase catalytic; type: biochemical
Ku70/80 = Ku70/80 (Homo sapiens, UniProt P12956+P13010); test: Ku–DNA binding EMSA; conditions: for IC50: Ku70/80 (IC50), purified Ku70/80, direct DNA binding activity by EMSA
Ku70/80 protein = conditions: gel-based TSA; cited from earlier work
NHEJ = conditions: earlier report; cited from earlier work
p53 phosphorylation = conditions: through p53 phosphorylation, ATM pathway activation; cited from earlier work

Ku70/80, sequence (P12956 whole entry): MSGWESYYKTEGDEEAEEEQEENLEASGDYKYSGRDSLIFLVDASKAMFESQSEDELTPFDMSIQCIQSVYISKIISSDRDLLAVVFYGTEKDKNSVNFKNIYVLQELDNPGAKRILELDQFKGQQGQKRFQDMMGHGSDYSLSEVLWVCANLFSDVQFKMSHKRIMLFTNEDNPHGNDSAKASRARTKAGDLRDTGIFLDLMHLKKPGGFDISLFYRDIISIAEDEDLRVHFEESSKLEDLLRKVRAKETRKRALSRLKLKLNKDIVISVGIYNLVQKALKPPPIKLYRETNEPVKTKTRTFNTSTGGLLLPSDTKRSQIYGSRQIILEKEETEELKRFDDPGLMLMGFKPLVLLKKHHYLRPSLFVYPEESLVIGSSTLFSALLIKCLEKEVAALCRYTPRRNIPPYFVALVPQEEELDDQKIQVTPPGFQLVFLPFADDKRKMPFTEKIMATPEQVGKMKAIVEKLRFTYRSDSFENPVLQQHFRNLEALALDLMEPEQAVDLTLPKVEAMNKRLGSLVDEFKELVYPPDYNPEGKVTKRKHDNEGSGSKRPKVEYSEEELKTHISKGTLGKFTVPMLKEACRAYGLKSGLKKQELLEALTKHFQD
Ku70/80, sequence (P13010 whole entry): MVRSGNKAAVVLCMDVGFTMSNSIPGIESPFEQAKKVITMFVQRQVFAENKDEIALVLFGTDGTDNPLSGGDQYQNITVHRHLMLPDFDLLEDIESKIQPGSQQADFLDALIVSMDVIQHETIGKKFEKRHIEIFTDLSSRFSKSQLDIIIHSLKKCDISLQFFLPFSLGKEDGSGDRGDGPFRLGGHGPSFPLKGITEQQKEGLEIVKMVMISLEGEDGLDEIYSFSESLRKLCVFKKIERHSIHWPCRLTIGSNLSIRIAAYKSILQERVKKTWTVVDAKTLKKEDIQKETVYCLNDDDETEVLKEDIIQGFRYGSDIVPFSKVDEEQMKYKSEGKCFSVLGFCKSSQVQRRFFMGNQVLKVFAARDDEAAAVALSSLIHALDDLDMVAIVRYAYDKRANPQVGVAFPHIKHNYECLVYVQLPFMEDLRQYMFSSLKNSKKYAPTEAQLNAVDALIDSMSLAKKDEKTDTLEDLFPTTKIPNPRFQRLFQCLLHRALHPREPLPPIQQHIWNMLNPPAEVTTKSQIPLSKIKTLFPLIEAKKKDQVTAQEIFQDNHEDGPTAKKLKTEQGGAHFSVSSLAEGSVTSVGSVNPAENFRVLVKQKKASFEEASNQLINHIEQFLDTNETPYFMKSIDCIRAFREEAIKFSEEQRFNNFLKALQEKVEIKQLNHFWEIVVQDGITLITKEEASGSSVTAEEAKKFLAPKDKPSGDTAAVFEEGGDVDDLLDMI
DNA-PK, sequence (P12956 whole entry): as the sequence (P12956 whole entry) above
DNA-PK, sequence (P13010 whole entry): as the sequence (P13010 whole entry) above
Ku70–Ku80, sequence (P12956 whole entry): as the sequence (P12956 whole entry) above
Ku70–Ku80, sequence (P13010 whole entry): as the sequence (P13010 whole entry) above

Structure (SMILES)	IC50 (DNA-PK)	IC50 (Ku70/80)	further results
COc1cccc(NC(=O)c2cc(-c3ccc(CC4C(=O)N(c5cccc(C(=O)O)c5)N=C4C)o3)ccc2Cl)c1 (centres unmarked) [53 (149), 3-(4-((5-(4-chloro-3-((3-methoxyphenyl)carbamoyl)phenyl)furan-2-yl)methyl)-3-methyl-5-oxo-4,5-dihydro-1H-pyrazol-1-yl)benzoic acid]			shift in thermal stability (qualitative) (Ku70–Ku80): concentration-dependent induction of a shift in thermal stability
O=C(O)c1cccc(N2N=C(C(F)(F)F)/C(=C/c3ccc(-c4ccc(Cl)c(C(=O)NCc5ccc(F)cc5)c4)o3)C2=O)c1 [Compound 52, (Z)-3-(4-((5-(4-Chloro-3-((4-fluorobenzyl)carbamoyl)phenyl)furan-2-yl)methylene)-5-oxo-3-(trifluoromethyl)-4,5-dihydro-1H-pyrazol-1-yl)benzoic acid]	0.25 µM	9.15 ± 0.68 µM	
COc1ccc(NC(=O)c2cc(-c3ccc(CC4C(=O)N(c5cccc(C(=O)O)c5)N=C4C)o3)ccc2Cl)cc1OC (centres unmarked) [Compound 54, 3-(4-((5-(4-Chloro-3-((3,4-dimethoxyphenyl)carbamoyl)phenyl)furan-2-yl)methyl)-3-methyl-5-oxo-4,5-dihydro-1H-pyrazol-1-yl)benzoic acid]	1.12 ± 0.17 µM	9.97 ± 0.4 µM	
COc1cccc(NC(=O)c2cc(-c3ccc(CC4C(=O)N(c5ccc(C(=O)O)cc5)N=C4C)o3)ccc2Cl)c1 (centres unmarked) [Compound 55, 4-(4-((5-(4-Chloro-3-((3-methoxyphenyl)carbamoyl)phenyl)furan-2-yl)methyl)-3-methyl-5-oxo-4,5-dihydro-1H-pyrazol-1-yl)benzoic acid]	0.808 ± 0.037 µM	7.67 ± 2.95 µM	
COc1cccc(CNC(=O)c2cc(-c3ccc(CC4C(=O)N(c5ccc(C(=O)O)cc5)N=C4C)o3)ccc2Cl)c1 (centres unmarked) [Compound 56, 4-(4-((5-(4-Chloro-3-((3-methoxybenzyl)carbamoyl)phenyl)furan-2-yl)methyl)-3-methyl-5-oxo-4,5-dihydro-1H-pyrazol-1-yl)benzoic acid]	0.49 ± 0.08 µM	12.4 ± 3.8 µM	
COc1cccc(NC(=O)c2cc(-c3ccc(CC4C(=O)N(c5cccc(C(=O)O)c5)N=C4C)s3)ccc2Cl)c1 (centres unmarked) [Compound 57, 3-(4-((5-(4-Chloro-3-((3-methoxyphenyl)carbamoyl)phenyl)thiophen-2-yl)methyl)-3-methyl-5-oxo-4,5-dihydro-1H-pyrazol-1-yl)benzoic acid]	0.4 ± 0.04 µM	6.09 ± 0.36 µM	
CC1=NN(c2cccc(C(=O)O)c2)C(=O)C1Cc1ccc(-c2ccc(Cl)c(C(=O)NCc3ccc(F)cc3)c2)s1 (centres unmarked) [Compound 60, 3-(4-((5-(4-Chloro-3-((4-fluorobenzyl)carbamoyl)phenyl)thiophen-2-yl)methyl)-3-methyl-5-oxo-4,5-dihydro-1H-pyrazol-1-yl)benzoic acid]	2.66 ± 1.74 µM	4.1 ± 0.3 µM	
COc1cccc(NC(=O)c2cc(-c3ccc(/C=C4\C(=O)N(c5ccc(S(N)(=O)=O)cc5)N=C4C)o3)ccc2Cl)c1 [Compound 67, (Z)-2-Chloro-N-(3-methoxyphenyl)-5-(5-((3-methyl-5-oxo-1-(4-sulfamoylphenyl)-1,5-dihydro-4H-pyrazol-4-ylidene)methyl)furan-2-yl)benzamide]	1.41 ± 0.27 µM	11.3 ± 2.16 µM	
CC1=NN(c2ccc(S(N)(=O)=O)cc2)C(=O)/C1=C\c1ccc(-c2ccc(Cl)c(C(=O)NCc3ccc(F)cc3)c2)o1 [Compound 69, (Z)-2-Chloro-N-(4-fluorobenzyl)-5-(5-((3-methyl-5-oxo-1-(4-sulfamoylphenyl)-1,5-dihydro-4H-pyrazol-4-ylidene)methyl)furan-2-yl)benzamide]	1.53 ± 0.22 µM	20.7 ± 1.84 µM	
COc1cccc(NC(=O)c2cc(-c3ccc(CC4C(=O)N(c5ccc(S(N)(=O)=O)cc5)N=C4C)o3)ccc2Cl)c1 (centres unmarked) [Compound 70, 2-chloro-N-(3-methoxyphenyl)-5-(5-((3-methyl-5-oxo-1-(4-sulfamoylphenyl)-4,5-dihydro-1H-pyrazol-4-yl)methyl)furan-2-yl)benzamide]	0.57 ± 0.12 µM	7.86 ± 4.4 µM	increase in DNA-PK activity (DNA-PK; compared with compound 67): 1–2.5 fold; increase in Ku inhibitory activity (Ku70/80; compared with compound 67): 1–2.5 fold
COc1cccc(NC(=O)c2cc(-c3ccc(/C=C4\C(=O)N(c5cccc(-c6nnn[nH]6)c5)N=C4C)o3)ccc2Cl)c1 [Compound 75, (Z)-5-(5-((1-(3-(1H-tetrazol-5-yl)phenyl)-3-methyl-5-oxo-1,5-dihydro-4H-pyrazol-4-ylidene)methyl)furan-2-yl)-2-chloro-N-(3-methoxyphenyl)benzamide]	0.98 ± 0.52 µM	3.51 ± 1.81 µM	
COc1cccc(NC(=O)c2cc(-c3ccc(CC4C(=O)N(c5cccc(-c6nnn[nH]6)c5)N=C4C)o3)ccc2Cl)c1 (centres unmarked) [Compound 76 (245), 5-(5-((1-(3-(1H-tetrazol-5-yl)phenyl)-3-methyl-5-oxo-4,5-dihydro-1H-pyrazol-4-yl)methyl)furan-2-yl)-2-chloro-N-(3-methoxyphenyl)benzamide]			direct interaction with Ku70/80 protein (Ku70/80 protein): directly interacts with the Ku70/80 protein; effect in CRISPR gene-editing model (NHEJ): inhibiting NHEJ and activating homologous recombination to increase the efficiency of gene insertion; potentiation of cellular effects of bleomycin and IR (p53 phosphorylation): potentiates the cellular effects of bleomycin and IR
